Measurements as given in PubChem BioAssay (NCI).
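Assay format: 96-well plates, 48-hour exposure. TGI: total growth inhibition.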

Key:
Assay in all cases: DTP human tumour cell line panel, 48 h
[1] = test system: SR leukemia
[2] = test system: HCC-2998 colon
[3] = test system: HCT-15 colon
[4] = test system: MDA-MB-231 breast
[5] = test system: SF-268 CNS
[6] = test system: COLO 205 colon
[7] = test system: MCF7 breast
[8] = test system: NCI-H460 lung
[9] = test system: MDA-N
[10] = test system: HOP-62 NSCLC
[11] = test system: SK-MEL-2 melanoma
[12] = test system: CAKI-1 renal
[13] = test system: MOLT-4 leukemia
[14] = test system: CCRF-CEM leukemia
[15] = test system: ACHN renal
[16] = test system: IGROV1 ovarian
[17] = test system: SNB-19 CNS
[18] = test system: SF-539 CNS
[19] = test system: LOX IMVI melanoma
[20] = test system: HL-60(TB) leukemia
[21] = test system: SF-295 CNS
[22] = test system: UACC-62 melanoma
[23] = test system: DU-145 prostate
[24] = test system: OVCAR-5 ovarian
[25] = test system: NCI-H23 lung
[26] = test system: UO-31 renal
[27] = test system: K-562 leukemia
[28] = test system: SN12C renal
[29] = test system: HS 578T breast
[30] = test system: NCI/ADR-RES ovarian
[31] = test system: 786-0 renal
[32] = test system: U251 CNS
[33] = test system: T-47D breast
[34] = test system: SK-MEL-5 melanoma
[35] = test system: HCT-116 colon
[36] = test system: PC-3 prostate
[37] = test system: MALME-3M melanoma
[38] = test system: RXF 393 renal
[39] = test system: SK-OV-3 ovarian
[40] = test system: RPMI-8226 leukemia

Measured: TGI

COC(C)(C)[C@@H]1CCCN1C1=C(C)C(=O)OC1
> 100 µM: [1] | [2] | [3] | [4] | [5] | [6] | [7] | [8] | [9] | [10] | [11] | [12] | [13] | [14] | [15] | [16] | [17] | [18] | [19] | [20] | [21] | [22] | [23] | [24] | [25] | [26] | [27] | [28] | [29] | [30] | [31] | [32] | [33] | [34] | [35] | [36] | [37] | [38] | [39] | [40]
